In patent US20260217698A1 (BEYANG THERAPEUTICS CO., LTD., priority 2022, published 2026):

Key:
VEGFR2 = VEGFR2 (Homo sapiens, UniProt P35968); test: Kinase inhibition, Mobility Shift Assay/IMAP, VEGFR2; assay type: biochemical; set-up: purchased Carna 08-191
How it was run: (§1)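 Substrate conversion (phosphorylated vs non-phosphorylated) read by mobility shift on Caliper EZ Reader II and converted to % inhibition relative to no-enzyme and DMSO controls. IC50 fitted from % inhibition versus log compound concentration.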

melanin = test: Binding capacity of compounds to melanin; assay type: in vitro ADME, cuttlefish (Sepia officinalis); details: cuttlefish (Sepia officinalis), melanin suspension (1 mg/mL); 1 mg/mL melanin in PBS pH 7.4, 2 μM compound, 2 h at 37° C.; read-out: Fu % (percentage of free drug)
How it was run: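 Compound (2 μM final) incubated with washed Sepia melanin (1 mg/mL, PBS pH 7.4) 2 h at 37° C with shaking; PBS with 0.1% BSA served as blank. Supernatants quantified by LC-MS/MS; bound fraction Fb derived from melanin versus blank concentration.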

HUVEC cells = test: Inhibition of VEGF-induced HUVEC cell proliferation, CellTiter Glo; assay type: cell-based; details: Homo sapiens, 20 ng/ml VEGF, 72 hours
How it was run: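 HUVEC (4000/well) serum-starved overnight in RPMI-1640 with 5% FBS, compound added 1 h before VEGF (20 ng/ml final in controls). After 72 h at 37 °C, viable cells were quantified by CellTiter-Glo luminescence; % inhibition fitted against log concentration, DMSO+VEGF wells as high control and cell-free wells as low.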

EGFR = biological target: T1, EGFR (Homo sapiens, UniProt P00533); test: Kinase inhibition, Mobility Shift Assay/IMAP, EGFR; assay type: biochemical
T1 construct: purchased Carna 08-115
How it was run: as §1

T1 sequence (P00533 669-1210 limits assumed): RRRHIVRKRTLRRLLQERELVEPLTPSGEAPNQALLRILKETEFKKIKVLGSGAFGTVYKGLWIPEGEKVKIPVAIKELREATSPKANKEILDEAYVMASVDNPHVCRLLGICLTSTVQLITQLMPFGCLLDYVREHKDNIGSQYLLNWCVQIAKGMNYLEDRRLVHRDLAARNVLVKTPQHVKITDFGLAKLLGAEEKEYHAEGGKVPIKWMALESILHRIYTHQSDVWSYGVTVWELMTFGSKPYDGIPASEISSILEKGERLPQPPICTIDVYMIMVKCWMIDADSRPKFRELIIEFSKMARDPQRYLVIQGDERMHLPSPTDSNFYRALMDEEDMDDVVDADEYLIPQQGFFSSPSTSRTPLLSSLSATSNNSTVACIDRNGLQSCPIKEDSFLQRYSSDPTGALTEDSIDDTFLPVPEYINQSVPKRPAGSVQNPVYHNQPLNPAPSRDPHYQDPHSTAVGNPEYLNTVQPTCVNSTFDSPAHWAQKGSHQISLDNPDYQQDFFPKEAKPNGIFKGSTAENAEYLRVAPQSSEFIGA
Chain of VEGFR2 (P35968 790-1356 limits assumed): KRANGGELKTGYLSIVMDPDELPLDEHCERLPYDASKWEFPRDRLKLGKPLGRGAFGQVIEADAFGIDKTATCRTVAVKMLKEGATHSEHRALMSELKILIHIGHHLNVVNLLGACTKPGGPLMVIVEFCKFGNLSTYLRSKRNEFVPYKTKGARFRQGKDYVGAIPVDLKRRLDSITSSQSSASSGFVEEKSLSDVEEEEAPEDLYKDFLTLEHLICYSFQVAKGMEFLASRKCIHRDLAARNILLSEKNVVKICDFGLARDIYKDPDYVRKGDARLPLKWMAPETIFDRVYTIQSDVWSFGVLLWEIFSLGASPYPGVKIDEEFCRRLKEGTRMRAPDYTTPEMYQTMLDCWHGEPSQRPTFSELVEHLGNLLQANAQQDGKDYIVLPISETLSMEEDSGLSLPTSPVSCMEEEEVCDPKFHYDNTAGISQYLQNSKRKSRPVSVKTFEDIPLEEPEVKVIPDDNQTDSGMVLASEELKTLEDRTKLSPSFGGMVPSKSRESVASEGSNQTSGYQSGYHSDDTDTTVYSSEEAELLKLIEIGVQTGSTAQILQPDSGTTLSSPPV

SMILES | IC50 (VEGFR2) [nM] | fraction unbound at 2 h, 2 μM (melanin) | IC50 (EGFR) [µM] | IC50 (HUVEC cells) [nM]
NC(=O)c1c(OCc2cc(C(=O)NC3CC3)ccc2F)nsc1NC(=O)NCCCCN1CCCC1 [Compound T087, 3-[[5-(cyclopropylcarbamoyl)-2-fluoro-phenyl]methoxy]-5-(4-pyrrolidin-1-ylbutylcarbamoylamino)isothiazole-4-carboxamide] | 1.66 | 0.0374 | 15.2 | 45.4
NC(=O)c1c(OCc2cc3c(cc2F)CCO3)nsc1NC(=O)NCCCCN1CC[C@@H](O)C1 [Compound T091, 3-[(5-fluoro-2,3-dihydrobenzofuran-6-yl)methoxy]-5-[4-[(3R)-3-hydroxypyrrolidin-1-yl]butylcarbamoylamino] isothiazole-4-carboxamide] | 3.03 | 0.0286 | 9.89 | 36
CN1CCN(CCCNC(=O)Nc2snc(OCc3cc4c(cc3F)CCO4)c2C(N)=O)CC1 [Compound T101, 3-[(5-fluoro-2,3-dihydrobenzofuran-6-yl)methoxy]-5-[3-(4-methylpiperazin-1-yl)propylcarbamoylamino] isothiazole-4-carboxamide] | 4.85 | 0.0702 | 9.16 | 48.6
NC(=O)c1c(OCc2cc(C(=O)NC3CC3)ccc2F)nsc1NC(=O)NCCCN1CC[C@H](F)C1 [Compound T116, 3-[[5-(cyclopropylcarbamoyl)-2-fluoro-phenyl]methoxy]-5-[3-[(3S)-3-fluoropyrrolidin-1-yl]propylcarbamoylamino]isothiazole-4-carboxamide] | 1.14 | 0.0376 | 18 | 21
CN1CCN(CCCNC(=O)Nc2snc(OCc3cc(C(=O)NC4CC4)ccc3F)c2C(N)=O)CC1 [Compound T118, 3-[[5-(cyclopropylcarbamoyl)-2-fluoro-phenyl]methoxy]-5-[3-(4-methylpiperazin-1-yl)propylcarbamoylamino]isothiazole-4-carboxamide] | 1.15 | 0.111 | 8.96 | 39

Further molecules by falling IC50 (VEGFR2), results first:

IC50 (VEGFR2) [nM] | fraction unbound at 2 h, 2 μM (melanin) | IC50 (EGFR) [µM] | SMILES | IC50 (HUVEC cells) [nM]
2.2 | 0.0707 | > 60 | NC(=O)c1c(OCc2c(F)ccc(C(=O)NC3CC3)c2F)nsc1NC(=O)NCCCCN1CCCC1 [Compound T124, 3-[[3-(cyclopropylcarbamoyl)-2,6-difluoro-phenyl]methoxy]-5-(4-pyrrolidin-1-ylbutylcarbamoylamino)isothiazole-4-carboxamide] | 43.6
0.63 | 0.0298 | 26.9 | NC(=O)c1c(OCc2cc(C(=O)NC3CC3)ccc2Cl)nsc1NC(=O)NCCCCN1CCCC1 [Compound T123, 3-[[2-chloro-5-(cyclopropylcarbamoyl)phenyl]methoxy]-5-(4-pyrrolidin-1-ylbutylcarbamoylamino)isothiazole-4-carboxamide] | 17.1
